In US12427200B2 (priority 2019, dated 2025):
Where “and” joins values, the source holds several entries; their conditions need not be identical. Equal entries are not always repeated.

Legend:
[1] = system: A/Perth/261/2009 (H1N1), H275Y mutation; settings: mouse, in vivo
[2] = system: H1N1 H275Y (A/Texas/23/2012); type: cell-based, Influenza A virus
[3] = system: H3N2 E119V (A/Texas/12/2007); type: cell-based, Influenza A virus
[4] = system: A/Perth/261/2009 (H1N1) H275Y; set-up: species or system BALB/c mice; settings: mouse, in vivo
[5] = system: A/Texas/23/2012 (H1N1) H275Y; set-up: species or system BALB/c mice; settings: mouse, in vivo
[6] = system: NA variants H275Y (H1N1), E119V and R292K (H3N2), R152K (B); assay: biochemical; type: biochemical, Influenza virus
[7] = molecular target: neuraminidase of live influenza A (H3N2) viruses (Influenza A virus, UniProt D1FVK3, I119V); assay: biochemical
[8] = molecular target: NA variants H275Y (H1N1), E119V and R292K (H3N2), R152K (B) (Influenza A virus (H3N2), UniProt D1FVK3, I119V); assay: biochemical; type: biochemical

Question: How did the “Median Survival” value [1] turn out when CCOC(=O)C1=C[C@@H](OC(CC)CC)[C@H](NC(C)=O)[C@@H](N)C1 [Oseltamivir phosphate] was run?
Answer: 7

Question: How did the “% Survival” value [1] turn out when CCOC(=O)C1=C[C@@H](OC(CC)CC)[C@H](NC(C)=O)[C@@H](N)C1 [Oseltamivir, oseltamivir] was run?
Answer: 20%

Question: And the EC50 [2]?
Answer: > 100 nM

Question: And the EC50 [3]?
Answer: > 100 nM

Question: What about the Survival [4] of the same compound?
Answer: no survivors

Question: What about the “Percent Body Weight (grams)” value ([4]; po) of the same compound?
Answer: 89% and 84% and 82% and 74% and 100% and 102% and 99%

Question: What about the “Percent Body Weight (grams)” value [5] of the same compound?
Answer: 84% and 78% and 100% and 97% and 92%

Question: And the “Protection from lethal challenge” value [5]?
Answer: failed to protect

Question: What about the “Loss in potency against variants (up to)” value [6] of the same compound?
Answer: > 100 fold

Question: CC(=O)N[C@H]1[C@H]([C@H](O)[C@H](O)CO)OC(C(=O)O)=C[C@@H]1N=C(N)N [Zanamivir, zanamivir] was tested. Which EC50 [2] did it give?
Answer: 93.8 nM

Question: And the EC50 [3]?
Answer: 74 nM

Question: What about the IC50 [7] of the same compound?
Answer: 3.08 nM

Question: And the IC50 [8]?
Answer: 3.8 nM

Question: What about the “Loss in potency against variants (up to)” value [6] of the same compound?
Answer: > 10 fold
